What all share (assay): growth of human tumour cells (NCI), 48 h
Assay [1] has as its system 786-0 renal.
Assay [2] concerns CAKI-1 renal.
Assay [3] has as its system COLO 205 colon.
Assay [4] concerns KM12 colon.
Assay [5] concerns M14 melanoma.
In assay [6] the test system is NCI-H226 lung.
The test system of assay [7] is OVCAR-8 ovarian.
For assay [8], the system named is RXF 393 renal.
Assay [9] has as its system SF-295 CNS.
For assay [10], the system named is SNB-19 CNS.

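Grown in 96-well plates, cells were treated for 48 hours with each compound at five concentrations. Insufficient inhibition: endpoint recorded as highest concentration tested. The concentration for 50% growth inhibition is given as GI50. At the TGI there is no net growth.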 Bounds are passed on as bounds.

Take `CCCCCCCC/C=C/CCCCCCCC(=O)OC[C@H]1O[C@@H](n2ccc(N)nc2=O)C(F)(F)[C@@H]1O`: the GI50 in assay [1] is less than 0.0139 µM; in assay [2], less than 0.0135 µM; in assay [3], 0.131 µM; in assay [4] it was more than 100 µM; in assay [5] it was less than 0.0115 µM; in assay [6] it was 0.333 µM. In addition, the GI50 in assay [7] is less than 0.01 µM; in assay [8] it was 0.0675 µM; in [9] it was 0.0242 µM; in assay [10], less than 0.0419 µM. Besides, the TGI in assay [1] is 2.56 µM; in assay [2], 3.59 µM; in assay [3], more than 37.9 µM; in assay [4], more than 100 µM; in assay [5] it was 0.0273 µM; in [6], more than 61.3 µM. For the same molecule, the TGI in assay [8] was more than 49.2 µM; in assay [9], 0.555 µM; in assay [10], more than 43.5 µM.

`Cn1c(=O)c(C(c2ccc([N+](=O)[O-])cc2)c2c(O)c3ccccc3n(C)c2=O)cc2ccccc21` (stereo not given): the TGI is more than 100 µM in [1]; more than 100 µM in [2]; more than 100 µM in assay [3]; more than 100 µM in assay [4]; more than 100 µM in assay [5]; 64 µM in assay [6]. Also, the TGI in [7], in [8], in [9] and in [10] was more than 100 µM each time.

`C1=CC2SSSC2C1` (stereo not given): the TGI in [1], in assay [3], in assay [4], in assay [5], in assay [6] and in assay [7] was more than 100 µM throughout. For the same molecule, the TGI in assay [8], in [9] and in assay [10] was more than 100 µM throughout.

For the molecule `CCOC(=O)c1c(C)n(Cc2ccc(Cl)cc2Cl)c2c1c(CN(C)C)c(O)c1[nH]cnc12`, the GI50 was 20.1 µM in [1]; 18.4 µM in [2]; 20.1 µM in assay [3]; 17.8 µM in assay [4]; 24.2 µM in assay [5]; 17.8 µM in [6]. Also, the GI50 was 15.1 µM in [7], 14.7 µM in [8], 28.1 µM in assay [9] and 18.4 µM in assay [10]. The TGI in assay [1] was 41.4 µM; in [2] it was 37.9 µM; in assay [3], 37.7 µM; in assay [4], 35.8 µM; in [5], 43.9 µM; in assay [6], 33.4 µM. For the same molecule, the TGI in [7] amounted to 28.3 µM; in [8], 28.7 µM; in [9] it was 65 µM; in [10], 32.3 µM.

Turning to `COc1ccccc1CCc1cc(OC)c(OC)c(OC)c1`, the TGI in assay [1], in [2], in assay [3], in assay [4], in assay [5] and in assay [6] was more than 100 µM in each case. For the same molecule, the TGI is more than 100 µM in assay [7], 57.7 µM in assay [8], more than 100 µM in assay [9] and more than 100 µM in assay [10].

For the molecule `NCC1Nc2ccccc2[C@@H](O)C1O` (stereo not given in full), the TGI in assay [1], in assay [2], in assay [3], in assay [4], in assay [5] and in assay [6] was more than 100 µM in each case. For the same molecule, the TGI in assay [7], in [8], in assay [9] and in assay [10] was more than 100 µM in each case.

Take `Clc1nc(Cl)c(Cl)c(-c2ccccc2)n1`: the TGI is 7.45 µM in [1]; 18 µM in [4]; 3.72 µM in assay [5]; 65.4 µM in assay [6]; more than 100 µM in [7]; 26.6 µM in [8]. In addition, the TGI in [9] was determined as 17.1 µM; in assay [10] it was 33.3 µM.

`COc1ccc(-c2n[nH]nc2-c2cc(OC)c(OC)c(OC)c2)cc1`: the GI50 was less than 0.01 µM in assay [1]; less than 0.01 µM in assay [2]; 0.0358 µM in assay [3]; less than 0.01 µM in [4]; less than 0.01 µM in assay [5]; less than 0.0225 µM in [6]. Moreover, the GI50 in assay [7], in assay [8] and in assay [9] was less than 0.01 µM throughout. For the same molecule, the TGI in assay [1] was 17.5 µM; in [2] it was more than 56.4 µM; in assay [3], 0.132 µM; in assay [4], 0.0445 µM; in [5], 17.8 µM; in [6] it was 82.7 µM. The TGI in [7] was 22 µM; in assay [8] it was 26.2 µM; in assay [9], more than 100 µM; in assay [10], more than 100 µM.

`O=C1OC(c2ccccc2)=N/C1=C\c1cccc2ccccc12`: the TGI in [1], in assay [2], in assay [3], in assay [4], in assay [5] and in assay [6] was more than 100 µM in each case. The TGI in assay [7], in assay [8], in assay [9] and in assay [10] was more than 100 µM each time.

As for `CC(=O)/C(C)=N/NC(=O)c1ccccc1O`, the GI50 in [1], in [2], in [3], in assay [4], in [5] and in [6] was more than 100 µM in each case. Further, the GI50 in assay [7], in assay [8], in [9] and in assay [10] was more than 100 µM throughout. Moreover, the TGI in assay [1], in [2], in assay [3], in [4], in assay [5] and in assay [6] was more than 100 µM each time. Moreover, the TGI in assay [7], in assay [8], in assay [9] and in [10] was more than 100 µM in each case.

Regarding `Oc1cccnc1CN1CCCCC1`, the TGI in assay [1], in assay [2], in [3], in assay [4], in [5] and in assay [6] was more than 100 µM each time. In addition, the TGI in assay [7], in [8], in [9] and in assay [10] was more than 100 µM in each case.

For the origin of these results see PubChem BioAssay (NCI).
